Data published in ChEMBL document CHEMBL4014354, “2'-Chloro,2'-fluoro Ribonucleotide Prodrugs with Potent Pan-genotypic Activity against Hepatitis C Virus Replication in Culture” (J Med Chem, 2017).
pEC50, pIC50: −log10 of the molar value.

Assays:
[1] = Inhibition of human DNA polymerase gamma using 5' end radiolabeled 24nt DNA/36nt DNA as primer/template after 120 mins by PAGE analysis
[2] = target: DNA polymerase beta (Homo sapiens, UniProt P06746); assay: Inhibition of human DNA polymerase beta using 5' end radiolabeled 24nt DNA/48nt DNA as primer/template after 5 mins by PAGE analysis
[3] = Metabolic stability in human blood assessed as compound remaining at 2 uM after 2 hrs by LC-MS/MS method; format: ADME, tissue-based; conditions: read-out: Stability
[4] = test system: HepG2; assay: Cytotoxicity against human HepG2 cells assessed as inhibition of nuclear DNA levels measured on day 14 by RT-PCR method; conditions: HepG2, 336 h
[5] = test system: cytochrome c oxidase subunit 2 DNA (mitochondrial DNA) levels; assay: Mitochondrial toxicity in human HepG2 cells assessed as inhibition of cytochrome c oxidase subunit 2 DNA levels measured on day 14 by RT-PCR method; format: cell-based
[6] = test system: nuclear DNA levels; assay: in vitro; conditions: human, HepG2 cells
[7] = test system: HepG2; assay: Mitochondrial toxicity in human HepG2 cells assessed as lactic acid production at 10 uM measured on day 14 by spectrophotometric method relative to control; format: cell-based; conditions: hepg2, 10 µM
[8] = test system: cytochrome c oxidase subunit 2 DNA (mitochondrial DNA) levels; assay: in vitro; conditions: human, HepG2 cells
[9] = test system: HepG2; assay: Mitochondrial toxicity in human HepG2 cells assessed as cytochrome c oxidase subunit 2 DNA levels at 10 uM measured on day 14 by RT-PCR method relative to nuclear beta-actin DNA levels; conditions: hepg2, 10 µM
[10] = test system: Hepatitis C virus; assay: Antiviral activity against HCV genotype 1a infected in human HuH7 cells assessed as inhibition of viral RNA replication after 96 hrs by RT-PCR method; format: functional, cell-based, Hepacivirus hominis; conditions: subtype 1a, Huh-7, 96 h
[11] = Cytotoxicity against human CEM cells assessed as inhibition of cell proliferation after 4 days by MTT assay; format: cell-based, CCRF-CEM
[12] = test system: HepG2; assay: Mitochondrial toxicity in human HepG2 cells assessed as cytochrome c oxidase subunit 2 DNA levels at 50 uM measured on day 14 by RT-PCR method relative to nuclear beta-actin DNA levels; format: cell-based; conditions: hepg2, 50 µM
[13] = test system: Hepatitis C virus; assay: Antiviral activity against HCV genotype 3a infected in human HuH7 cells assessed as inhibition of viral RNA replication after 96 hrs by RT-PCR method; format: functional, cell-based, Hepacivirus hominis; conditions: Huh-7, 96 h
[14] = test system: cytochrome c oxidase subunit 2 DNA (mitochondrial DNA) levels; assay: Mitochondrial toxicity in human HepG2 cells assessed as inhibition of cytochrome c oxidase subunit 2 DNA levels at 50 uM measured on day 14 by RT-PCR method relative to nuclear beta-actin DNA levels; format: cell-based
[15] = test system: nuclear DNA levels; assay: Cytotoxicity against human HepG2 cells assessed as inhibition of nuclear DNA levels at 50 uM measured on day 14 by RT-PCR method relative to nuclear beta-actin DNA levels; format: cell-based; conditions: read-out: INH
[16] = test system: Hepatitis C virus; assay: Antiviral activity against HCV genotype 2a/k infected in human HuH7 cells assessed as inhibition of viral RNA replication after 96 hrs by RT-PCR method; format: functional, cell-based, Hepacivirus hominis; conditions: Huh-7, 96 h
[17] = Cytotoxicity against human PBMC assessed as inhibition of cell proliferation after 5 days by MTT assay; format: cell-based
[18] = Cytotoxicity against human HuH7 cells assessed as inhibition of cell proliferation after 4 days by MTS assay; format: cell-based, Huh-7
[19] = test system: Hepatitis C virus; assay: Antiviral activity against HCV genotype 1b infected in human HuH7 cells assessed as inhibition of viral RNA replication after 96 hrs by RT-PCR method; format: functional, cell-based, Hepacivirus hominis; conditions: Huh-7, 96 h
[20] = test system: Hepatitis C virus; assay: Antiviral activity against HCV genotype 1b harboring wild type NS5B infected in human HuH7 cells assessed as inhibition of viral RNA replication after 5 days by RT-PCR method; format: functional, cell-based, Hepacivirus hominis; conditions: Huh-7, 120 h
[21] = test system: Hepatitis C virus; assay: Antiviral activity against HCV genotype 2b infected in human HuH7 cells assessed as inhibition of viral RNA replication after 96 hrs by RT-PCR method; format: functional, cell-based, Hepacivirus hominis; conditions: Huh-7, 96 h
[22] = test system: HepG2; assay: Mitochondrial toxicity in human HepG2 cells assessed as lactic acid production at 50 uM measured on day 14 by spectrophotometric method relative to control; format: cell-based; conditions: hepg2, 50 µM
[23] = test system: Hepatitis C virus; assay: Antiviral activity against HCV genotype 4 infected in human HuH7 cells assessed as inhibition of viral RNA replication after 96 hrs by RT-PCR method; format: functional, cell-based, Hepacivirus hominis; conditions: genotype 4, Huh-7, 96 h
[24] = Cytotoxicity against African green monkey Vero cells assessed as inhibition of cell proliferation after 3 days by MTT assay; format: cell-based; conditions: chlorocebus sabaeus
[25] = Inhibition of RNA polymerase 2 isolated from human HeLa cell nuclear extract assessed as decrease in incorporation of P32-alpha-CTP after 2 hrs by scintillation counting method; format: cell-free
[26] = target: T1, DNA polymerase alpha catalytic subunit (Homo sapiens, UniProt P09884); assay: Inhibition of human DNA polymerase alpha using 5' end radiolabeled 24nt DNA/48nt DNA as primer/template after 5 mins by PAGE analysis
T1 sequence (P09884 whole entry): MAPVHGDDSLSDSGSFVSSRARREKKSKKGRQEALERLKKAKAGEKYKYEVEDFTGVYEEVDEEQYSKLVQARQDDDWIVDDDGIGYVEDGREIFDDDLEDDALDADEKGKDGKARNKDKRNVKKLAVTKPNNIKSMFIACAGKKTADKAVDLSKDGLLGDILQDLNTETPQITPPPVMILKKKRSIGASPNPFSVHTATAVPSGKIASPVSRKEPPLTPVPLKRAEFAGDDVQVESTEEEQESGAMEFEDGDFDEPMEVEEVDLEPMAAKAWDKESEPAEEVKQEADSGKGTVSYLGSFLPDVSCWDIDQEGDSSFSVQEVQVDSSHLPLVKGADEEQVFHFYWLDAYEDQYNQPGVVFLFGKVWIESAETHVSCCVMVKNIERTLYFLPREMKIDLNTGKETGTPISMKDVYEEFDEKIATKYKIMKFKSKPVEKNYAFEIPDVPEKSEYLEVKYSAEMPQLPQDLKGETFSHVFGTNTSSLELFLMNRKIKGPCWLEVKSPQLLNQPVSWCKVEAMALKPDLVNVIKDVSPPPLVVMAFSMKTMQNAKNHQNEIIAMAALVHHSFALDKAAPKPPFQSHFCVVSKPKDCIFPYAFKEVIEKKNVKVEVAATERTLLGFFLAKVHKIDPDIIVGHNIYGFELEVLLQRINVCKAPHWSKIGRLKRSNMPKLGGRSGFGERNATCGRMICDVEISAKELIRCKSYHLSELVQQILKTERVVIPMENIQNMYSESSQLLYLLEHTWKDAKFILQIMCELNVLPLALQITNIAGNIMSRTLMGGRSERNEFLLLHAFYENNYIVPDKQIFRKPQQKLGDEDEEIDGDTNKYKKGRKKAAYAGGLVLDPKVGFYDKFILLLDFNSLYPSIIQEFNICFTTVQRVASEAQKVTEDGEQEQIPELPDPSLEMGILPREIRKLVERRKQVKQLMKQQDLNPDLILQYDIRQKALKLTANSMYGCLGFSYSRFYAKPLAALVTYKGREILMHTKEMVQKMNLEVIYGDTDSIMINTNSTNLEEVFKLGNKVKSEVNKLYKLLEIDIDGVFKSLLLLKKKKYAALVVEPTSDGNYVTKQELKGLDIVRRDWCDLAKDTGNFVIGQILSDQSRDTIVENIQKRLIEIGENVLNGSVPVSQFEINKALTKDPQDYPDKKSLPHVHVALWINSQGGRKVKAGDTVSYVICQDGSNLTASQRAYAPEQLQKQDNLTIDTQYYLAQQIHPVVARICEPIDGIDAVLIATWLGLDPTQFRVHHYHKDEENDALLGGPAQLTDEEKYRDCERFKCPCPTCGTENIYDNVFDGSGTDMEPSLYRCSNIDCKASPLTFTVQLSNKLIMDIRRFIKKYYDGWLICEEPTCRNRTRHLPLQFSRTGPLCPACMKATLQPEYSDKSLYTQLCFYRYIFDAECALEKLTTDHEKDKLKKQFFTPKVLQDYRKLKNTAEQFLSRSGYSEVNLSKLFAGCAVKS

[27] = target: DNA-directed RNA polymerase, mitochondrial (Homo sapiens) (UniProt O00411); assay: Inhibition of human POLRMT using 5'-P32-RNA/DNA hybrid assessed as incorporation of UTP at 100 uM after 2 hrs by scintillation counting method relative to control; parameters: scale not given: the % may be the effect or the level left
DNA-directed RNA polymerase, mitochondrial (Homo sapiens), sequence (O00411 whole entry): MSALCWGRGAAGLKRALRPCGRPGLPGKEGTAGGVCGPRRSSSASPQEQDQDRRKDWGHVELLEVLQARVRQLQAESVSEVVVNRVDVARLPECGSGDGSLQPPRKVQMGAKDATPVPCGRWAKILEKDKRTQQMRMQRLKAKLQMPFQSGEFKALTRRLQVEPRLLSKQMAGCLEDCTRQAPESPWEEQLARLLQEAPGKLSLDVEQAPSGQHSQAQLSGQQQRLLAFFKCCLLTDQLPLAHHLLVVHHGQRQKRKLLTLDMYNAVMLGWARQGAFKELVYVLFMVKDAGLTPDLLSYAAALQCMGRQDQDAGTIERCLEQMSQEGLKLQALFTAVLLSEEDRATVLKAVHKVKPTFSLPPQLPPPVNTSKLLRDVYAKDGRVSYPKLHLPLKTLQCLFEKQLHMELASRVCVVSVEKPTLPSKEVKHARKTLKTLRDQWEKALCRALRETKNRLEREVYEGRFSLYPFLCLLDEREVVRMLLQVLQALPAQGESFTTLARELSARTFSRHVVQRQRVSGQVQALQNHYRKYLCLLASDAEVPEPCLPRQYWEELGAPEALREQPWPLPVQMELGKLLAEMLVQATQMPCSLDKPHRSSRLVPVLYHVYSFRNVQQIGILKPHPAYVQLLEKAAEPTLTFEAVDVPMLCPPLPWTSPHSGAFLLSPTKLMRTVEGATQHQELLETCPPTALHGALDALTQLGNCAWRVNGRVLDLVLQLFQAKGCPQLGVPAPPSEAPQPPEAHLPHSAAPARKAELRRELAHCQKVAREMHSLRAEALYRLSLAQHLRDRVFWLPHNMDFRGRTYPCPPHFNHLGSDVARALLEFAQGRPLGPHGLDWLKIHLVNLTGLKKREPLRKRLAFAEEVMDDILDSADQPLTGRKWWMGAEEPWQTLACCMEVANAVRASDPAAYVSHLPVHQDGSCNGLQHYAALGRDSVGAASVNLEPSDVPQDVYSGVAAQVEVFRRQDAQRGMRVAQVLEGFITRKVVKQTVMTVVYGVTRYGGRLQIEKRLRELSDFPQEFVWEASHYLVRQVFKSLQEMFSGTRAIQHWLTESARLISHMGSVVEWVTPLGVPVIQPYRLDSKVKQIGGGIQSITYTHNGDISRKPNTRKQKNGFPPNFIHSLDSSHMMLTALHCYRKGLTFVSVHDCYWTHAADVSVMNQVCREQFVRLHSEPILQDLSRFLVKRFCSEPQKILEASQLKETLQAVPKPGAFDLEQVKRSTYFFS

[28] = in vitro; conditions: human, liver microsomes
Description: Clearance in human liver microsomes at 1 uM by LC-MS/MS analysis

[29] = in vitro; conditions: human, liver microsomes; remark: listed apart in the source
Description: Metabolic stability in human liver microsomes assessed as parent compound remaining at 1 uM at 60 mins by LC-MS/MS analysis

[30] = in vitro; conditions: human, liver microsomes; remark: listed apart in the source
Description: Half life in human liver microsomes at 1 uM by LC-MS/MS analysis

Cc1cn([C@H]2CC[C@@H](COP(=O)(O)OP(=O)(O)OP(=O)(O)O)O2)c(=O)[nH]c1=O
pIC50 [1]: 4.37
pIC50 [2]: 4.72

CC1CC(OC(=O)C(O)c2ccccc2)CC(C)(C)N1C (configuration not stated) [EUCATROPINE]
remaining at 2 h, 2 µM [3]: 19%

Nc1ccn([C@H]2CC[C@@H](CO)O2)c(=O)n1 [ZALCITABINE]
pIC50 [4]: > 5.00
IC50 at 14 days [5]: < 10 µM
cytotoxicity at 14 days, 10 µM [6]: 53%
Activity [7]: 330%
inhibition at 14 days, 10 µM [8]: 96%
Activity [9]: 9.5%

O=c1ccn([C@@H]2O[C@H](CO)[C@@H](O)[C@]2(F)Cl)c(=O)[nH]1
pIC50 [10]: < 4.22
pIC50 [4]: < 4.30
CC50 at 96 h [11]: > 100 µM
IC50 at 14 days [5]: > 50 µM
Activity [12]: 120%
cytotoxicity at 14 days, 10 µM [6]: 8.8%
pIC50 [13]: < 4.22
inhibition at 14 days, 50 µM [14]: < 1%
cytotoxicity at 14 days, 50 µM [15]: < 1%
pIC50 [16]: < 4.22
Activity [7]: 85%
CC50 at 120 h [17]: > 100 µM
CC50 at 96 h [18]: > 100 µM
pIC50 [19]: < 4.22
pEC50 [20]: < 4.00
EC90 [20]: > 100 µM
inhibition at 14 days, 10 µM [8]: < 1%
Activity [9]: 160%
pIC50 [21]: < 4.22
Activity [22]: 120%
pIC50 [23]: < 4.22
CC50 at 72 h [24]: > 100 µM

C[C@@]1(F)[C@H](O)[C@@H](COP(=O)(O)OP(=O)(O)OP(=O)(O)O)O[C@H]1n1ccc(=O)[nH]c1=O [GS-461203]
pIC50 [25]: < 4.00
pIC50 [1]: < 4.00
pIC50 [26]: < 4.00
pIC50 [2]: < 4.00
Activity [27]: 3.1%

C[C@]12CC[C@H]3[C@@H](CCC4=CC(=O)CC[C@@]43C)[C@@H]1CC[C@@H]2O [TESTOSTERONE]
microsomal CLint at 1 µM [28]: 92 µL/min/mg
remaining at 1 h, 1 µM [29]: 6.3%
half-life at 1 µM [30]: 15 min

Nc1ccn([C@@H]2CS[C@H](CO)O2)c(=O)n1 [LAMIVUDINE]
IC50 at 14 days [5]: > 10 µM

O=C(O)Cc1ccccc1Nc1c(Cl)cccc1Cl [DICLOFENAC]
microsomal CLint at 1 µM [28]: 156 µL/min/mg
remaining at 1 h, 1 µM [29]: 1.2%
half-life at 1 µM [30]: 8.9 min

C[C@@]1(F)[C@H](O)[C@@H](CO)O[C@H]1n1ccc(=O)[nH]c1=O
pIC50 [10]: < 4.00
pIC50 [13]: < 4.00
pIC50 [16]: < 4.00
pIC50 [19]: < 4.00
pIC50 [21]: < 4.00
pIC50 [23]: < 4.00

CC(C)OC(=O)[C@H](C)NP(=O)(OC[C@H]1O[C@@H](n2ccc(N)nc2=O)[C@@](F)(Cl)[C@@H]1O)Oc1ccccc1 (some centres not stated)
CC50 at 96 h [11]: > 100 µM
CC50 at 120 h [17]: > 100 µM
CC50 at 96 h [18]: > 10 µM
pEC50 [20]: 7.00
EC90 [20]: 0.3 µM
CC50 at 72 h [24]: > 100 µM

CC(C)OC(=O)[C@H](C)NP(=O)(OC[C@H]1O[C@@H](n2cc(F)c3c(N)ncnc32)C(F)(Cl)C1O)Oc1ccccc1 (single isomer, unassigned)
CC50 at 96 h [11]: 55.3 µM
CC50 at 120 h [17]: 99.7 µM
CC50 at 96 h [18]: > 10 µM
pEC50 [20]: < 5.00
EC90 [20]: > 10 µM
CC50 at 72 h [24]: 60.9 µM

CC[C@H](C)[C@@H]1NC(=O)CNC(=O)[C@@H]2Cc3c([nH]c4cc(O)ccc34)[S+]([O-])C[C@@H](NC(=O)CNC1=O)C(=O)N[C@@H](CC(N)=O)C(=O)N1C[C@H](O)C[C@H]1C(=O)N[C@@H]([C@@H](C)[C@@H](O)CO)C(=O)N2 (stereo partly drawn) [alpha-Amanitin]
pIC50 [25]: 8.60
